Data taken from US20050171206A1, “Therapeutical use” (priority 2004, published 2005).
“And” between values parts separate entries of the source, which are not always exact repeats. Identical values can stand only once.

Experiments:
[1] = test system: SMA patients; conditions: published clinical trials; cited from earlier work
[2] = test system: SMN2 genes; conditions: in vitro, cell cultures; cited from earlier work
[3] = cited from earlier work
[4] = test system: SMA patients (muscle strength); test: Myometry with hand-held dynamometer, day 0 and day 7 (Example 1); type: in vivo, human
Experimental: (§1) Six SMA patients (P1-P6) and three parents (M2, M3, F6) were enrolled for a pilot trial. Four patients had SMA type II (P1-P4). P1 is a child who had lost the ability to sit unaided. P3 is […] and P4 and P5 are both […]. Two patients (P5 and P6) had SMA type III. The trial was approved by the Ethical Committee of the Catholic University. A written informed consent was obtained from all patients/parents. triButyrate®, the sodium salt of phenylbutyrate was administered at 500 mg/kg/d (maximum dose 19 g/d), divided in 6 doses(every 4 hours) for 7 days. Blood samples were taken from patients and parents on day 0 (T0, baseline) and on days 1-4 (T1-T4) and 7 (T7) of drug administration, and from 5 healthy untreated controls on 5 consecutive days (T0-T4). Total RNA was extracted by Trizol from leukocytes immediately after hypotonic lysis of samples.
Muscle strength was assessed using a hand-held dynamometer (Citec, CIT Technics BV). (Merlini L, Mazzone E S, Solari A, Morandi L. Muscle Nerve 2002; 26:64-70) Patients were tested independently four times by two raters, and the highest measure of the maximal voluntary isometric contraction was selected. Inter-rater coefficients (ICC) were determined as described by Shrout et al. (Shrout P E, Fleiss J L. Pscychol Bull 1979; 86:420-428)
(§2) F of Fisher, ANOVA and T of Student for independent variables tests were performed to assess statistical significance by using Winstat 4.01 and SPSS 10.0.1 for Windows software. P values <0.05 were accepted as significant.

[5] = i.v. administration, non-human primates; cited from earlier work
[6] = test system: children with SMA II; test: Joint contractures (Example 2); type: in vivo, human; conditions: between baseline and 9 weeks
Experimental: (§3) Measurements lasted 3 to 5 seconds. The scores were grouped in a leg mega score and arm megascore by adding the best readings for each individual muscle within the subgroup and subdividing this score by the number of muscles examined. Intra-observer variation performed before the implementation of the study was less than 5%. Both myometry and measurement of joint contractures were performed by the same physiotherapist.

[7] = test system: children with SMA II (motor function); test: Hammersmith functional motor scale, open trial in SMA II children (Example 2); type: in vivo, human; conditions: for Hammersmith functional scale score, mean: 10 children, baseline mean 13
Text: Thirteen patients with SMA II, all with homozygous absence of SMN1, followed at the Bambino Gesu Hospital or at the UILDM centre in Rome were asked to participate in the present prospective open trial. In order to have a relatively homogeneous cohort of patients who could all be tested on the same scale only children with SMA II between 30 months and 12 years were included. Children younger than 30 months were excluded as the Hammersmith scale can only be reliably and consistently performed and scored after this age. (Main M, Kairon H, Mercuri E, Muntoni F. Eur J Paediatr Neurol. 2003;7:155-59.) Children older than 12 were excluded as after this age several complications, such as severe scoliosis and contractures are more frequent. Children who had been part of other pharmacological trials (e.g. salbutamol, creatine) in the year before the present trial started or who had had corrective surgery for scoliosis were also excluded.
(§4) The sodium salt of phenylbutyrate (triButyrate®) was administered orally in powder or tablets at 500 mg/kg/d (maximum dose 19 g/d), divided in 5 doses (every 4 hours except for an 8 hours night interval). An intermittent schedule (7 days on and 7 days off) was arbitrarily chosen, similarly to a previously reported schedule for treatment of sickle cell disease. (Atweh G F, Sutton M, Nassif I, Boosalis V, Dover G J, Wallen-stein S, Wright E, McMahon L, Stamatoyannopoulos G, Faller D V, Perrine S P Blood.1999;93:1790-97.) When this dosage was tolerated, patients were advised to continue for 9 weeks (5 weeks on and 4 weeks off).
(§5) The assessment consisted of a detailed clinical physiotherapy evaluation including the Hammersmith functional motor scale and, in children older than 5 years, assessment of muscle strength and of forced vital capacity.
The scale consists of 20 items, each scored on a 3 point scoring system, (2 for unaided, 1 for assistance and 0 for inability). A total score can be achieved by summing the scores for all the individual items. The score can range from 0, if all the activities are failed, to 40, if all the activities are achieved.
All items have to be tested without thoracic braces or leg orthoses. The scale can be completed in a maximum of 15 minutes. (Main M, Kairon H, Mercuri E, Muntoni F. Eur J Paediatr Neurol. 2003;7:155-59.)
The scale was performed by 2 examiners (MP, SM) and each child was always assessed by the same examiner throughout the 3 assessments. Both observers had training sessions with a senior physiotherapist (MM) and the intra and inter-rater reliability was formally assessed in 5 children before starting the trial. In agreement with the previously reported data on intra and inter-observer reliability, these were >95%. (Main M, Kairon H, Mercuri E, Muntoni F. Eur J Paediatr Neurol. 2003;7:155-59.)
The primary measure of efficacy in this trial was the change from baseline to 3 and 9 weeks in motor function as determined by the Hammersmith motor scale. Secondary measures included the change from baseline to 3 and 9 weeks in myometry scores and in FVC in the children older than 5 years. The primary outcome was analysed using repeated measures ANOVA. Statistical significance was determined at p<0.05. An estimate of SD of change in each of the measures considered is presented with 95% confidence intervals. The number of children older than 5 years who could be reliably assessed for myometry and FVC was too small to allow any meaningful statistical analysis for these measures.

[8] = test system: SMA patients and parents; test: Clinical observations and tolerability, pilot trial (Example 1); type: in vivo, human
Experimental: as §1
These subjective improvements prompted us to perform myometry in the other four patients on day 0 and 7 (table 1.2).

[9] = test system: children with SMA II older than 5 years; test: Forced vital capacity by spirometer (Example 2); type: in vivo, human; parameters: FVC: unit not given here; conditions: for FVC: individual children
Experimental: as §4, §5
This was measured using a standard spirometer (Spyroanalyser ST-95, Fukuda Sangyo Co, LTD, Philippines) and using the best of three attempts.

[10] = 200 g per person and day; cited from earlier work
[11] = test system: SMN full length (SMN-fl) transcripts (SMN2 gene expression) in leukocytes; test: SMN full length transcripts in leukocytes by real-time RT-PCR during one week of oral triButyrate (Example 1); type: in vivo, human
Experimental: as §1
SMN full length (SMN-fl) transcripts were measured by realtime RT-PCR using ABI-PRISM 7700 Sequence Detector System (Applied Biosystems) as described elsewhere. (Andreassi C, Angelozzi C, Tiziano F D, Vitali T, De Vincenzi E, Boninsegna A, Villanova M, Bertini E, Pini A, Neri G, Brahe C. Eur. J. Hum. Genet. 2004; 12:59-65) Transcripts were amplified at least twice in triplicate or quadruplicate. SMN transcript levels were calculated by comparing SMN versus glyceraldehyde-3-phosphate dehydrogenase transcripts, whose expression is not affected by triButyrate®. (Andreassi C, Angelozzi C, Tiziano F D, Vitali T, De Vincenzi E, Boninsegna A, Villanova M, Bertini E, Pini A, Neri G, Brahe C. Eur. J. Hum. Genet. 2004; 12:59-65) The relative amounts of SMN-fl transcripts in samples obtained from treated patients/parents and untreated controls were normalized versus those of T0.
as §2

[12] = test system: children with SMA II older than 5 years (muscle strength); test: Myometry, hand held electronic myometer (Example 2); type: in vivo, human; parameters: myometry: unit not given here; conditions: for myometry: individual children
Experimental: as §4, §5, §3

[13] = test system: children with SMA II; test: Side effects (Example 2); type: in vivo, human
Experimental: The sodium salt of phenylbutyrate (triButyrate®) was administered orally in powder or tablets at 500 mg/kg/d (maximum dose 19 g/d), divided in 5 doses (every 4 hours except for an 8 hours night interval). An intermittent schedule (7 days on and 7 days off) was arbitrarily chosen, similarly to a previously reported schedule for treatment of sickle cell disease.

[14] = according to recent publications

Compound: CC(C)(C)NCC(O)c1ccc(O)c(CO)c1 (stereo not shown) [albuterol]
- clinical outcome in SMA patients [1]: improvement in clinical symptoms

Compound: Nc1nc2ccc(OC(F)(F)F)cc2s1 [riluzole]
- clinical outcome in SMA patients [1]: no statistically significant improvement

Compound: NCC1(CC(=O)O)CCCCC1 [gabapentin]
- clinical outcome in SMA patients [1]: did not show improvement of the symptoms

Compound: CCCC(=O)[O-].[Na+] [sodium butyrate]
- expression of the SMN2 genes [2]: can increase SMN2 gene expression in vitro

Compound: O=C(O)CCCc1ccccc1 [PBA, 4-phenylbutyric acid]
- SMN protein levels [2]: effective in enhancing SMN protein levels
- expression of the SMN2 genes [2]: effective in increasing the expression of the SMN2 genes
- number of SMN containing nuclear structures [2]: effective in enhancing

Compound: O=C([O-])CCCc1ccccc1.[Na+] [triButyrate®, Sodium 4-phenylbutyrate]
- metabolised to butyrate [3, 14]: ~25%
- metabolised to sodium phenylacetate [3, 14]: approximately 75%
- half-life ([3]; in vivo): 48 to 60 min
- Foot dorsiflexion ([4]; T7 = day 7, P2, P3, P4 (type II), P6 (type III)): 15 (0.6) Newtons and 9 (0.81) Newtons and 11 (0.81) Newtons and 11 (0.9) Newtons
- Arm strength ([4]; patients P3 and P4, less obvious than leg strength): increased
- leg muscle strength on day 7 compared to baseline ([4]; three type II patients (P2-4), statistically significant in P3 and P4): increase in leg muscle strength
- muscle performance by myometry ([4]; type III case (P6), reduced dosage): no changes in muscle performance
- penetration into the cerebrospinal fluid (CSF) [5]: penetrates into the cerebrospinal fluid
- major joint's ranges (hips, knees, hamstrings, tendon Achilles and elbows) [6]: no difference
- motor function in the treated children ([7]; 9 weeks, 7 days on and 7 days off): significant increase in motor function
- children in the study group with an increase in functional scores ([7]; 9 weeks, intermittent regimen): nine out of ten
- Hammersmith functional scale score, mean ([7]; T1, 3 weeks after treatment was started): 14.8
- Hammersmith functional scale score, mean ([7]; T2, 9 weeks after treatment was started): 17 and 16.6
- children with an increase in functional scores of more than 2 points ([7]; of the ten children, 9 weeks): 6
- expression of the SMN2 genes [2]: can increase SMN2 gene expression in vitro
- adverse events ([8]; P6 on day 2 at 18 g/d, resolved after reducing to 12 g/d): dizziness and tinnitus
- tolerability ([8]; all subjects, 500 mg/kg/d for 7 days): tolerated the drug well except for P6
- Full blood counts and liver function tests ([8]; all subjects, days 0 and 7): did not show significant changes
- head and trunk control ([8]; patient P1, severe type II phenotype): slight improvement in head and trunk control
- hand tremor ([8]; patient P5 (type III), day 3 of treatment, later complete absence lasting 4 days after end of trial): reduction of hand tremor
- Forced vital capacity, patients with increase ([9]; 4 patients older than 5 years): clear increase in 3 of the 4
- FVC ([9]; T1, 3 weeks): 0.87 and 1.15 and 0.75 and 1.70
- FVC ([9]; T2, 9 weeks): 1.18 and 1.23 and 1.22 and 1.74
- side-effect [10]: increased blood pressure
- relative SMN-fl transcript levels during administration compared to baseline ([11]; all patients, one or more blood samples): significant increase
- Percent SMN-fl transcripts variation versus T0, T1 mean(+-SD) ([11]; day 1 of 500 mg/kg/d oral, leukocytes, individual patients P1-P6 and parents M2, M3, F6, 500 mg/kg/day): +53 (0.1) % and −1 (0.0) % and +54 (0.2) % and +68 (0.0) % and +65 (0.1) % and +117 (1.0) % and +280 (0.7) % and +73 (0.0) % and +432 (0.2) %
- Percent SMN-fl transcripts variation versus T0, T2 mean(+-SD) ([11]; day 2 of 500 mg/kg/d oral, leukocytes, individual patients/parents, 500 mg/kg/day): +184 (0.6) % and +35 (0.3) % and +25 (0.1) % and +14 (0.0) % and −2 (0.0) % and +96 (0.1) % and +27 (0.0) % and +63 (0.1) %
- Percent SMN-fl transcripts variation versus T0, T3 mean(+-SD) ([11]; day 3 of 500 mg/kg/d oral, leukocytes, individual patients/parents, 500 mg/kg/day): +7 (0.2) % and +131 (0.5) % and +116 (0.0) % and −37 (0.0) % and +197 (0.7) % and −15 (0.1) % and +21 (0.1) % and +82 (0.2) %
- Percent SMN-fl transcripts variation versus T0, T4 mean(+-SD) ([11]; day 4 of 500 mg/kg/d oral, leukocytes, individual patients/parents, 500 mg/kg/day): +120 (0.4) % and −3 (0.0) % and +21 (0.0) % and +156 (0.2) % and +363 (0.6) % and +387 (0.9) % and −18 (0.2) % and +129 (0.3) % and +190 (0.5) %
- Percent SMN-fl transcripts variation versus T0, T7 mean(+-SD) ([11]; day 7 of 500 mg/kg/d oral, leukocytes, individual patients/parents, 500 mg/kg/day): +827 (1.9) % and +155 (0.1) % and −15 (0.4) % and +190 (0.2) % and +71 (0.3) % and +333 (0.5) % and +56 (0.2) %
- increase in SMN-fl transcripts in at least one blood sample during treatment ([11]; in all patients): more than 100%
- myometry, patients with increase ([12]; 4 patients older than 5 years): clear increase in 3 of the 4
- myometry ([12]; T1, 3 weeks): 0.18 and 0.41 and 0.09 and 0.38
- myometry ([12]; T2, 9 weeks): 0.17 and 0.45 and 0.09 and 0.46
- tolerability ([13]; 500 mg/kg/d oral, intermittent, 9 weeks): generally well tolerated
- stomach ache ([13]; after the second dose, did not recur): Three very young children complained of stomach ache
- children who found the taste of the drug very unpleasant ([13]; children who completed the trial): Eight of the 10
- children who reported an unpleasant odour when sweating ([13]; of the eight who found the taste unpleasant): seven
- adverse event leading to discontinuation ([13]; one child, after the second week of treatment started): skin rash
